Measurements reported in publication PMC9131456, “Structure-Based Discovery of Lipoteichoic Acid Synthase Inhibitors” (Journal of Chemical Information and Modeling, 2022).

Key:
[1] = test system: LTA production in S. aureus (strain RN4220); experiment: Western blot (immunoblotting) of LTA in S. aureus cell extracts; type: cell-based; conditions: for LTA production: Western blot of S. aureus cell extracts, 10 μM in Figure S14, 100 μM for compound 8
Description: The procedures of LTA detection using Western Blot had previously been reported by Gründling et al.[52] To determine the effect of the compounds on LTA production, 10 mL cultures of S. aureus (strain RN4220) in MH2 broth were incubated in an orbital shaker at 37 °C with either the compounds or DMSO. When the control cultures had reached an OD600nm ∼ 1, the bacteria were pelleted and the OD600nm of the cultures normalized by resuspension with the appropriate amount of MH2 broth. Subsequently, 1 mL from each cultures was mixed with 0.5 mL of 0.1 mm glass beads, and the bacteria were lyzed by vortexing at 4 °C for 45 min. After lysis, glass beads were removed by centrifugation at 200g, and the supernatants were transferred to a new tube. The membrane-associated LTA from each culture were pelleted by an additional centrifugation step of the supernatant at 16,000g for 15 min before resuspension in 30 μL of 2× SDS. The samples were boiled at 80 °C for 20 min, and the solubilized fractions were loaded onto 15% SDS-polyacrylamide gels prior to electrophoresis at 120 V for 1.5 h. The LTA on the gels were electrotransferred onto FL-immobilon PVDF membranes at 25 V for another 1.5 h. After the electrotransfer, the membranes were blocked with 5% skimmed milk for 1 h and incubated with the antimouse LTA antibody (clone G43J, Thermo Fisher Scientific; 1:1000 dilution) overnight at 4 °C. After washing, the membranes were incubated with antimouse IRDye 680RD (1:10,000 dilution) for 1 h, washed, and visualized using the Odyssey CLx Imaging System.

eLtaS = target: T1, eLtaS (Staphylococcus aureus, UniProt Q2G093); experiment: Differential scanning fluorimetry (DSF) of eLtaS; type: binding, S. aureus
T1 construct: LtaS is a transmembrane protein with a large extracellular catalytic domain (denoted as eLtaS); His-tag; made in house; host or cells: E. coli (Rosetta; plasmid pProEX-eLtaS from strain ANG571)
T1 sequence (Q2G093 218-646): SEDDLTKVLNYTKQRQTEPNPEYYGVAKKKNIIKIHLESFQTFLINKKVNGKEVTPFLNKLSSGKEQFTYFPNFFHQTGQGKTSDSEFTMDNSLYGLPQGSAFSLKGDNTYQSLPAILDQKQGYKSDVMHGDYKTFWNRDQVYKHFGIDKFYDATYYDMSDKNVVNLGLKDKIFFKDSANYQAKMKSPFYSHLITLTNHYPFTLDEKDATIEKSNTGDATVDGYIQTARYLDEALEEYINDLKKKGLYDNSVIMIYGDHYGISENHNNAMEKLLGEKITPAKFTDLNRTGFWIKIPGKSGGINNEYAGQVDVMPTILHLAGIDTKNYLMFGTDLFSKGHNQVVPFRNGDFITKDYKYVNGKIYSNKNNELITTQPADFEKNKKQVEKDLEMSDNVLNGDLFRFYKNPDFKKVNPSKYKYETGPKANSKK
Description: DSF assays were performed on eLtaS using the CFX Connect RT-PCR system (Bio-rad) using the protocol described previously.[43] Solutions containing 5 μM eLtaS protein in DSF buffer (25 mM Trizma-HCl, pH 7.5, 100 mM NaCl, 10% glycerol, 1 mM EDTA, 20× SYPRO Orange) with compounds at the appropriate concentrations were dispensed onto 96-well PCR plates in triplicate. The plates were sealed with Microseal “B” PCR Plate Sealing Film (Bio-rad) prior to the DSF run. The emitted fluorescence at 568 nm was measured from 25 to 65 °C at a step ramp rate of 0.5 °C every 30 s. Prism GraphPad v.5 was used for curve fitting, and the melting temperature Tm for each curves was derived from the Boltzmann equation.

wild-type eLtaS = target: T2, wild-type eLtaS (Staphylococcus aureus, UniProt Q2G093); experiment: Isothermal titration calorimetry, wild-type eLtaS; type: binding, S. aureus; conditions: ITC; for Kd: 25 °C, wild-type eLtaS titrated into 10 μM inhibitor
T2 construct: LtaS is a transmembrane protein with a large extracellular catalytic domain (denoted as eLtaS); His-tag; made in house; host or cells: E. coli (Rosetta; plasmid pProEX-eLtaS from strain ANG571)
T2 sequence (Q2G093 218-646): as above
Description: Each of the eLtaS proteins were purified from 6 L of E. coli cultures that were grown with aeration in LB medium supplemented with 200 μg/mL of carbenicillin and 34 μg/mL of chloramphenicol at 37 °C. When the cultures reached an OD600nm of about 0.6, protein expression was induced with 1 mM IPTG final concentration at 21 °C overnight. Later, the bacteria were harvested by centrifugation at 11,899g, and the bacterial pellets were resuspended with lysis buffer (50 mM Trizma-HCl, pH 7.5, 300 mM NaCl, 5% glycerol, 10 mM imidazole, 5 mM β-mercaptoethanol). The bacterial pellets were lyzed by three passages through a high-pressure emulsifier, and the lysates were centrifuged at 47,596g for 30 min at 4 °C. The resulting supernatants containing the His-tagged eLtaS proteins were filtered with a 0.22 μm filter before being loaded onto a 5 mL Ni-NTA column using an ÄKTApure protein purification system. The bound proteins were subsequently washed with lysis buffer, eluted using the elution buffer (50 mM Trizma-HCl, pH 7.5, 300 mM NaCl, 5% glycerol, and 300 mM imidazole), and dialyzed twice using the dialysis buffer [25 mM Trizma-HCl, pH 7.5, 100 mM NaCl, 10% glycerol, 1 mM ethylenediaminetetraacetic acid (EDTA)]. After dialysis, protein purity was confirmed to be >90% using SDS-PAGE. Proteins were then concentrated, snap-frozen in liquid N2, and stored at −80 °C prior to usage. All four eLtaS proteins were subjected to circular dichroism analysis, and their exact masses were determined using MS.
The thawed eLtaS proteins were dialyzed using D-Tube Dialyzer Mini (EMD Millipore) in 20 mM Trizma-HCl pH 7.5, 100 mM NaCl with Chelex 100 (Sigma-Aldrich) for 1.5 h twice on the same day prior to the ITC experiments. After dialysis, the eLtaS proteins were centrifuged at 20,000g at 10 °C for 10 min. The supernatants were transferred to new microcentrifuge tubes and diluted to 100 μM using the same buffer as above with an addition of 0.1% (v/v) DMSO. Meanwhile, the eLtaS inhibitors were diluted to 10 μM using the same buffer and maintaining 0.1% (v/v) DMSO. The eLtaS proteins were titrated into the main cell containing the inhibitors using a VP-ITC at 25 °C. The injection parameters were set as follows: a reference power of 15 μcal/s, an initial injection of 3 μL over a duration of 3.6 s, and then subsequent injections of 10 μL over a duration of 12 s. All injections were spaced with 240 s with a filter period of 2 s. Data were first analyzed in NITPIC[69] for baseline calculations and then fit for thermodynamic parameters using the OneSite model in Origin 7.0 software.

[2] = test system: S. aureus (strain Newman); experiment: Antimicrobial microdilution broth assay (growth inhibition); type: cell-based; conditions: for IC50: S. aureus strain Newman growth, OD600nm after 20 h at 37 °C, MH2 broth, mean ± s.e.m., n = 3
Description: All the compounds tested in this study were dissolved in dimethyl sulfoxide (DMSO) at an initial stock concentration of 20 mM and stored at −20 °C. These compounds were tested for their antimicrobial activity using the microdilution broth method[66] following the protocol described by Richter et al.[30] Briefly, overnight cultures of S. aureus (strain Newman) grown at 37 °C in cation-adjusted Mueller Hinton II (MH2) broth were adjusted to an OD600nm of 0.6 before back-diluted with a factor of 1:2000 with the same broth. After that, 200 μL of the diluted bacterial culture were dispensed into each well of 96-well plates supplemented with the compounds to the desired concentrations. The plates were then sealed with a moisture membrane barrier and incubated statically for 20 h at 37 °C. After that, the OD600nm values of the cultures in each well were measured using a CLARIOstar microplate reader (BMG Labtech). The procedures for the potentiation assays were by large the same as described above with some variations. In such assays, MRSA strain COL was grown in the 96-well plates supplemented with different concentrations of compound 9 with methicillin, carbenicillin, or polymyxin B in a checkerboard format. Their synergistic effects were quantified by OD600nm measurements using a CLARIOstar microplate reader (BMG Labtech).

[3] = Staphylococcus aureus, NEWMAN, 20 h

| Structure (SMILES) | LTA production [1] | LTA production ([1]; listed as compound 4) | shift of the melting temperature of eLtaS (eLtaS; DSF, 5 μM eLtaS, across the range of concentrations tested) | Kd (wild-type eLtaS) [µM] | binding enthalpy (wild-type eLtaS; wild-type eLtaS, compared with 1771) | IC50 [2] [µM] | IC50 [2, 3] [µM] | improvement in antimicrobial potency ([2]; compound 4 compared with 1771, S. aureus growth) [fold] | electrophoretic mobility of the LTA extracted from treated S. aureus ([1]; Western blot, 100 μM compound) | direct binding to eLtaS (eLtaS; using ITC and DSF, DSF at 100 μM compound) | decrease in antimicrobial potency compared with compound 8 ([2]; S. aureus growth) [fold] |
| --- | --- | --- | --- | --- | --- | --- | --- | --- | --- | --- | --- |
| O=C(COC(=O)c1cn(-c2ccccc2)nc1-c1cccs1)Nc1nnc(-c2ccccc2)o1 [Compound 4] | able to reduce LTA production | decrease LTA production in a dose-dependent manner | shifted the melting temperature of eLtaS more so than 1771 | 0.365 ± 0.0068 | more exothermic than that of 1771 | 4.06 ± 0.4 | 4.1 | 4 | – | – | – |
| S=C(Nc1ccc(Cl)cc1)Nc1ccc(Sc2nc3ccccc3[nH]2)cc1 [Compound 9] | – | – | – | 0.283 | – | 117 | 117 | – | smearing effect | binds directly to eLtaS | 4 |
